Peptide text beside a SMILES is read from it.
Legend:
[1] = In vivo toxicity, mice administered peptides alone; set-up: species or system BALB/cAJcl-nu/nu mice; details: peptide 100 μM intracranial, no virus infection
Procedure: Based on a previous report, but with slight modifications, 3-week-old female BALB/cAJcl-nu/nu mice (CLEA Japan Inc., Tokyo, Japan) were used in the animal experiments. Mice were divided in four groups (n = 6 for each cage) and housed with free access to both water and food and monitored daily. The mice were SSPE virus-infected or mock-infected (MEM alone) intracranially. An SSPE virus-infected cell suspension containing 250 PFU/ 30 μl (100% lethal dose) was inoculated into the subarachnoid space of nude mice using a 27-gauge double needle at a depth of 2 mm. Each compound was prepared at a concentration of 100 μM and was injected intracranially at 0 (mixed with viruses), 6, and 24 h after the initial virus inoculation. All injections were performed under inhalational anesthesia with isoflurane. Each mouse was checked for neurological symptoms and weighed daily. The ethical endpoint was defined as <75% of their maximum weight because most mice would die within 24 h. On attaining this endpoint, the mice were sacrificed by cervical dislocation under inhalational anesthesia with isoflurane. In this experiment, five mice died of natural causes before the ethical endpoint; however, all mice had neurological symptoms and 9.5%, 13.2%,14.5%, 15.8%, 16.4% weight loss (one each) relative to their maximum weight. This study was approved by the control of the Animal Research Committee in accordance with the Guidelines on Animal Experiments in Fukushima Medical University and the Rules for the Protection and Care of Animals (approval number: 23038).

SSPE virus = test: Time-of-addition experiments, SSPE virus in Vero cells; assay type: cell-based, SSPE virus (variant measles virus)
Procedure: Synthetic peptides, M1 and M2EK (10 μM each) were used in time-of-addition experiments. Each peptide was added to Vero cells at three distinct time points: prior to infection (pretreatment with the compound), at the same time as the virus infection (simultaneous infection), or post-infection (post-entry). The SSPE virus was prepared to yield a reproducible number of syncytia in untreated control wells (approximately 50–100/well). In the pretreatment assay, peptide was added to confluent cells and incubated at 37°C for 30 min, and the cell cultures were washed with MEM before viral inoculation. Cells were then challenged with the SSPE virus at 0°C for 30 min. In the simultaneous infection assay, SSPE virus with peptide was inoculated at 0°C for 30 min. After the adsorption, the cell cultures were subsequently washed with MEM, and growth medium containing 0.75% methylcellulose was overlaid on the cell cultures, followed by incubation for 3 days in both pretreatment and simultaneous infection assays. In the post-entry assay, cells were challenged with the SSPE virus at 0°C for 30 min. After adsorption, the cell cultures were subsequently washed with MEM and peptide, which was prepared in growth medium containing 0.75% methylcellulose, was subsequently overlaid on the cell cultures at distinct time points. The starting point when cells were incubated at 0°C for 30 min was defined as t0.

SSPE Yamagata-1 strain [2] = test: Viral plaque reduction assay, SSPE virus in Vero cells; assay type: cell-based, SSPE virus (variant measles virus); details: for inhibition of plaque formation compared with the control group, SSPE Yamagata-1 strain (peptide screening): peptide 10 μM, Vero cells and Vero/SLAM cells (Fig 2C), duplicate, at least twice independently; for EC50: plaque reduction, SSPE Yamagata-1 strain, mean ± SD; for EC50 / SI, SSPE virus (Vero cells): Vero cells; for SI, SSPE virus (Vero cells): selectivity index, ratio of CC50 relative to EC50
Procedure: (§1) African green monkey kidney (Vero) cells and Vero cells expressing human SLAM (Vero/SLAM cells) were used in all experiments. The growth medium for Vero cells comprised minimal essential medium (MEM) supplemented with 10% heat-inactivated newborn bovine serum, penicillin G (100 IU/ml), streptomycin (100 μg/ml), and L-glutamine (300 μg/ml). The same growth medium, which was further supplemented with G418 (400 μg/ml), was used for Vero/SLAM cells. Cells were seeded into the wells (22 mm) of 12-well tissue culture plates at 1 × 10^5 cells/well and incubated at 37°C in a 10% CO2 incubator for 3 days, at which time they had just reached confluence. The virus strains used were human MV Edmonston strain and SSPE Yamagata-1 [34], which was originally isolated from the brain of an SSPE patient. The Edmonston strain of MV was used to inoculate Vero/SLAM cells and harvested after freeze–thawing infected cells. The SSPE Yamagata-1 strain was cultured in Vero/SLAM cells, harvested by trypsinization, prepared as an infected cell suspension in the Vero/SLAM cell medium supplemented with 10% dimethyl sulfoxide, and stored at −80°C until use.
(§2) Screening was performed to evaluate the antiviral effects of each synthetic peptide against the MV and SSPE viruses using the viral plaque reduction assay. Based on the results of the peptide screening, the 50% effective concentration (EC50), i.e., the concentration of compounds required to inhibit virus plaque formation by 50%, was also determined. The Human MV Edmonston strain was used to produce cell-free virions, which yielded a reproducible number of syncytia [generally 200–300 plaque-forming units (PFUs)] in the control wells. The SSPE virus was also used to yield a reproducible number of syncytia (generally 70–150 PFU) in control wells. In the peptide screening assay, each synthetic peptide was used at a concentration of 10 μM. IFN-α and enfuvirtide, a peptide fusion inhibitor of HIV-1, were used as controls at a concentration of 250 IU/ml and 10 μM, respectively.

SSPE Yamagata-1 strain [3] = test: Viral plaque reduction assay, SSPE virus in Vero/SLAM cells; assay type: cell-based, SSPE virus (variant measles virus); details: for EC50: plaque reduction, SSPE Yamagata-1 strain, mean ± SD; for SI, SSPE virus (Vero/SLAM cells): selectivity index, ratio of CC50 relative to EC50
Procedure: as §1, §2

MV Edmonston strain = test: Viral plaque reduction assay, measles virus in Vero cells; assay type: cell-based; details: for EC50: plaque reduction, MV Edmonston strain, mean ± SD; for EC50 / SI, measles virus (Vero cells): Vero cells; for SI, measles virus (Vero cells): selectivity index, ratio of CC50 relative to EC50
Procedure: as §1, §2

Vero/SLAM cells = test: Methyl tetrazolium cytotoxicity assay, Vero/SLAM cells; assay type: cell-based, African green monkey; details: confluent Vero/SLAM cells, 24 h, 37°C
Procedure: (§3) Peptide cytotoxicity was determined using the methyl tetrazolium assay. Five-fold serial dilutions of peptides were added to confluent Vero or Vero/SLAM cells. Cells were then incubated at 37°C for 24 h, and the number of viable cells was determined using 3-(4,5-dimethyllthiazol-2-yl)-2,5-diphenylterazolium bromide (Sigma–Aldrich, Tokyo, Japan). The 50% cytotoxic concentration (CC50), which was defined as the concentration required to reduce the cell viability by 50% relative to that of untreated controls, was determined. The selectivity index (SI) was defined as the ratio of the CC50 relative to the EC50 value.

Vero cells = test: Methyl tetrazolium cytotoxicity assay, Vero cells; assay type: cell-based, African green monkey; details: confluent Vero cells, 24 h, 37°C
Procedure: as §3

Compound | survival of mice administered with peptides alone, with no symptoms [1] | viral inhibitory effect, peptide added post-infection (post-entry) (SSPE virus; peptide 10 μM overlaid at distinct time points after adsorption) | viral plaque numbers, peptide added before viral adsorption or at the same time as virus inoculation (SSPE virus; peptide 10 μM, pretreatment 37°C 30 min or simultaneous with SSPE virus 0°C 30 min, compared with control) | inhibition of plaque formation compared with the control group, SSPE Yamagata-1 strain (peptide screening) (SSPE Yamagata-1 strain [2]) | EC50 (SSPE Yamagata-1 strain [2]) | SI, SSPE virus (Vero cells) (SSPE Yamagata-1 strain [2]) | EC50 (SSPE Yamagata-1 strain [3]) | SI, SSPE virus (Vero/SLAM cells) (SSPE Yamagata-1 strain [3]) | EC50 (MV Edmonston strain) | SI, measles virus (Vero cells) (MV Edmonston strain) | inhibition of MV Edmonston plaque formation compared with the control group (peptide screening) (MV Edmonston strain; peptide 10 μM (Fig 2C), duplicate, at least twice independently) | CC50, SSPE virus (Vero/SLAM cells) (Vero/SLAM cells) | CC50, SSPE virus (Vero cells) (Vero cells) | CC50, measles virus (Vero cells) (Vero cells)
CC[C@H](C)[C@H](NC(C)=O)C(=O)N[C@@H](CO)C(=O)N[C@@H](CC(C)C)C(=O)N[C@@H](CCC(=O)O)C(=O)N[C@@H](CCCNC(=N)N)C(=O)N[C@@H](CC(C)C)C(=O)N[C@@H](CC(=O)O)C(=O)N[C@H](C(=O)NCC(=O)N[C@H](C(=O)N[C@@H](CC(N)=O)C(=O)N[C@@H](CC(C)C)C(=O)NCC(=O)N[C@@H](CC(N)=O)C(=O)N[C@@H](C)C(=O)N[C@H](C(=O)N[C@@H](C)C(=O)N[C@@H](CCCCN)C(=O)N[C@@H](CC(C)C)C(=O)N[C@@H](CCC(=O)O)C(=O)N[C@@H](CC(=O)O)C(=O)N[C@@H](C)C(=O)N[C@@H](CCCCN)C(=O)N[C@@H](CCC(=O)O)C(=O)N[C@@H](CC(C)C)C(=O)N[C@@H](CC(C)C)C(=O)N[C@@H](CCC(=O)O)C(=O)N[C@@H](CO)C(=O)N[C@@H](CO)C(=O)N[C@@H](CC(=O)O)C(=O)N[C@@H](CCC(N)=O)C(=O)N[C@H](C(=O)N[C@@H](CC(C)C)C(=O)N[C@@H](CCCNC(=N)N)C(=O)N[C@@H](CO)C(N)=O)[C@@H](C)CC)[C@@H](C)CC)[C@@H](C)O)C(C)C [Peptide M1] | > 45 days | observed in a time-dependent manner, particularly within 24 h | no reduction in viral plaque numbers | > 97% | 10 ± 10 nM | >7519 | 10 ± 10 nM | >9524 | 30 ± 10 nM | >3663 | – | – | – | –
Enfuvirtide | – | – | – | lower antiviral activity | > 10000 nM | – | > 10000 nM | – | > 10000 nM | – | lower antiviral activity | – | – | –
CC[C@H](C)[C@H](NC(=O)[C@H](C)NC(=O)[C@H](CC(N)=O)NC(=O)CNC(=O)[C@H](CC(C)C)NC(=O)[C@H](CC(N)=O)NC(=O)[C@@H](NC(=O)CNC(=O)[C@@H](NC(C)=O)C(C)C)[C@@H](C)O)C(=O)N[C@@H](C)C(=O)N[C@@H](CCCCN)C(=O)N[C@@H](CC(C)C)C(=O)N[C@@H](CCC(=O)O)C(=O)N[C@@H](CC(=O)O)C(=O)N[C@@H](C)C(=O)N[C@@H](CCCCN)C(=O)N[C@@H](CCC(=O)O)C(=O)N[C@@H](CC(C)C)C(=O)N[C@@H](CC(C)C)C(=O)N[C@@H](CCC(=O)O)C(=O)N[C@@H](CO)C(=O)N[C@@H](CO)C(=O)N[C@@H](CC(=O)O)C(=O)N[C@@H](CCC(N)=O)C(=O)N[C@H](C(=O)N[C@@H](CC(C)C)C(=O)N[C@@H](CCCNC(=N)N)C(=O)N[C@@H](CO)C(=O)N[C@@H](CCSC)C(=O)N[C@@H](CCCCN)C(=O)NCC(=O)N[C@@H](CC(C)C)C(=O)N[C@@H](CO)C(=O)N[C@@H](CO)C(=O)N[C@H](C(N)=O)[C@@H](C)O)[C@@H](C)CC [Peptide M2] | – | – | – | – | 260 ± 170 nM | >377 | 480 ± 220 nM | >209 | 120 ± 40 nM | >805 | – | >100000 nM | >100000 nM | >100000 nM
CC[C@H](C)[C@H](NC(C)=O)C(=O)N[C@@H](CCC(=O)O)C(=O)N[C@@H](CCC(=O)O)C(=O)N[C@@H](CCC(=O)O)C(=O)N[C@@H](CCCNC(=N)N)C(=O)N[C@@H](CCCCN)C(=O)N[C@@H](CCCCN)C(=O)N[C@H](C(=O)N[C@@H](CCC(=O)O)C(=O)N[C@@H](CCC(=O)O)C(=O)N[C@@H](CC(N)=O)C(=O)N[C@@H](CC(C)C)C(=O)N[C@@H](CCCCN)C(=O)N[C@@H](CCCCN)C(=O)N[C@@H](C)C(=O)N[C@@H](CCC(=O)O)C(=O)N[C@@H](CCC(=O)O)C(=O)N[C@@H](CCCCN)C(=O)N[C@@H](CC(C)C)C(=O)N[C@@H](CCCCN)C(=O)N[C@@H](CCCCN)C(=O)N[C@@H](C)C(=O)N[C@@H](CCC(=O)O)C(=O)N[C@@H](CCC(=O)O)C(=O)N[C@@H](CC(C)C)C(=O)N[C@@H](CC(C)C)C(=O)N[C@@H](CCCCN)C(=O)N[C@@H](CCCCN)C(=O)N[C@@H](CO)C(=O)N[C@@H](CCC(=O)O)C(=O)N[C@@H](CCC(=O)O)C(=O)N[C@H](C(=O)N[C@@H](CC(C)C)C(=O)N[C@@H](CCCCN)C(=O)N[C@@H](CCCCN)C(N)=O)[C@@H](C)CC)C(C)C [Peptide M1EK] (Ac-IEEERKKVEENLKKAEEKLKKAEELLKKSEEILKK-NH2) | – | – | – | > 97% | 120 ± 50 nM | – | 170 ± 20 nM | – | – | – | – | – | – | –
enfuvirtide | > 45 days | – | – | – | – | – | – | – | – | – | – | >100000 nM | >100000 nM | >100000 nM
